Article PMC4214760, “Host Cofactors and Pharmacologic Ligands Share an Essential Interface in HIV-1 Capsid That Is Lost upon Disassembly” (PLoS Pathogens, 2014)
“Also recorded” adds a separate entry of the source. Like-named read-outs stand apart in the source and are kept apart here. Ends that are not written are not given here.

Key:
HIV-1 CA hexamer [1] = target: T1, HIV-1 CA hexamer (Human immunodeficiency virus type 1 group M subtype B, UniProt P12493, A146C/E177C/M317A/W316A); test: biochemical; assay type: binding
T1 construct: produced by assembly of recombinant CA containing four amino acid substitutions; made in house
Protocol: (§1) Hexamer protein was dialysed against ITC buffer (50 mM TRIS pH 7.4, 150 mM NaCl) for experiments using intact hexamer, or ITC buffer containing 1 mM DTT for experiments with monomerized hexamer. The monomeric status of hexamer dialysed against buffer containing DTT was confirmed by size exclusion chromatography. Peptides were dissolved in the same buffer as hexamer; NUP153 peptides were first dissolved in DMSO to a concentration of 8 mM before diluting in buffer. Drugs were dissolved in DMSO to a concentration of 5 mM, before diluting in buffer. In all cases, hexamer (in the syringe) was titrated into the peptide or drug ligand (in the cell), with the exception of the competition experiments, whereby peptide (400 µM) was titrated into hexamer (30 µM) in the presence of drug (100 µM). Typical concentrations used were 600–800 µM hexamer titrated against 60–80 µM peptide unless indicated otherwise, and 200 µM hexamer titrated against 30 µM drug. ITC experiments were conducted on a MicroCal ITC-200, and data analyzed using Origin data analysis software (MicroCal).

HIV-1 CA hexamer [2] = target: T1, HIV-1 CA hexamer; test: ITC competition: cofactor peptide titrated into hexamer in the presence of drug; assay type: binding
Protocol: as §1

[3] = test system: VSV-G pseudotyped GFP-encoding HIV-1 vector; assay type: cell-based
monomeric HIV-1 CA = target: T2, monomeric HIV-1 CA (Human immunodeficiency virus type 1 group M subtype B, UniProt P12493, A146C/E177C/M317A/W316A); test: ITC binding to monomeric CA (hexamer monomerized with 1 mM DTT)
T2 construct: produced by assembly of recombinant CA containing four amino acid substitutions; made in house
Protocol: as §1

[4] = test system: HIV-1 reverse transcription; assay type: cell-based
[5] = read-out: Kd (approximate), hexamer binding of CPSF6 and NUP153 mutant peptides, ITC, Hex 0.76-1.122 mM into peptide 0.076-0.112 mM, NB = no binding detectable

## CN(C(=O)[C@H](Cc1ccccc1)NC(=O)Cc1cc[nH]c1)c1ccccc1 [PF74_3]
HIV-1 CA hexamer [1]
  Kd: 5.5 µM
HIV-1 CA hexamer [1]; ITC
  Fold reduction in affinity to hexamer relative to PF74: 46 fold

## CN(C(=O)[C@H](Cc1ccccc1)NC(=O)Cc1ccoc1)c1ccccc1 [PF74_4]
HIV-1 CA hexamer [1]; ITC
  Fold reduction in affinity to hexamer relative to PF74: 94 fold

## CN(C(=O)[C@H](Cc1ccccc1)NC(=O)Cc1ccsc1)c1ccccc1 [PF74_5]
HIV-1 CA hexamer [1]; ITC
  Fold reduction in affinity to hexamer relative to PF74: 54 fold

## CN(C(=O)[C@H](Cc1ccccc1)NC(=O)CC1CCOC1)c1ccccc1 (stereo partly shown) [PF74_6]
HIV-1 CA hexamer [1]; ITC
  Fold reduction in affinity to hexamer relative to PF74: > 1000 fold

## PF74
HIV-1 CA hexamer [2]
  Competition with CPSF6 peptide for binding to hexamer: inhibit CPSF6 binding to hexamer
  Competition with NUP153 peptide for binding to hexamer: prevent NUP153 binding to hexamer
[3]
  Reversal of inhibition of infection on wash out: completely; also recorded: partially
  Time post-infection by which almost all efficacy was lost when addition was delayed: ≤ 10 h
HIV-1 CA hexamer [1]
  Fold higher affinity to hexamer than BI-2: 10 fold
  Fold increase in affinity to hexamer compared with monomeric CA: 22 fold
  N (stoichiometry), binding to HIV-1 hexamer: 0.7
  ΔH, binding to HIV-1 hexamer: -9.02 kcal/mol
  ΔS, binding to HIV-1 hexamer: 1.20 (cal/mol)/deg
Monomeric HIV-1 CA
  N (stoichiometry), binding to monomeric CA: 0.7
  ΔH, binding to monomeric CA: -16.1 kcal/mol
  ΔS, binding to monomeric CA: -29.0 (cal/mol)/deg
[4]
  Reversibility of block to reverse transcription on wash out: largely irreversible

## PVLFDGQPFGQPPLG [CPSF6pep P317D]
HIV-1 CA hexamer [1]; [5]
  Kd: > 700 µM

## PVLFPGQPAGQPPLG [CPSF6pep F321A]
HIV-1 CA hexamer [1]; [5]
  Kd: > 700 µM

## PVLFPRQPFGQPPLG [CPSF6pep G318R]
HIV-1 CA hexamer [1]; [5]
  Kd: > 700 µM

## TNNSPAGVFTFGANSST [Nup153pep S1412A]
HIV-1 CA hexamer [1]
  Kd: ~130 µM

## TNNSPSGVATFGANSST [Nup153pep F1415A]
HIV-1 CA hexamer [1]; [5]
  Kd: > 700 µM

## TNNSPSGVFAFGANSST [Nup153pep T1416A]
HIV-1 CA hexamer [1]; [5]
  Kd: > 700 µM

## TNNSPSGVFTAGANSST [Nup153pep F1417A]
HIV-1 CA hexamer [1]; [5]
  Kd: > 700 µM
